# Counter-ions that a name gives are not always drawn. Like-named read-outs stand apart in the source and are kept apart here.
# How the values were obtained:
# [1] = tested on: adjuvant arthritis; assay: Adjuvant arthritis (method of Pearson), reduction in the increase in paw volume; format: in vivo, male rats of a Wistar-Lewis strain; conditions: Rattus norvegicus, po; for inhibition in vivo at 50 mg/kg: 50 mg/kg p.o., once daily day 1 to day 5, rats; for inhibition in vivo at 12.5 mg/kg: * 12.5 mg/kg p.o.; for ED50: read-out: ED50 in adjuvant arthritis
# Description: 1. […] The experimental animals used were male rats of a Wistar-Lewis strain having a body weight between 130 and 200 g. […] The animals in a control group received only the vehicle. Each preparation and control group comprised 8 animals. The criterion for action was the percentage reduction in the increase in paw volume compared to that of the untreated control group.
# [2] = Acute gastral ulcerogenity; parameters: species or system male Sprague-Dawley rats; conditions: rat, in vivo, po
# Procedure: 2. Acute gastral ulcerogenity
# The investigation took place on 10 male Sprague-Dawley rats whose gastric mucous membrane had been sensitized by hunger stress. The body weight of the animals was between 200 and 300 g. While allowing free access to the drinking water, the feed was withdrawn from the animals 48 hours before administration of the test preparations until sacrifice of the animals. The rats were sacrificed 24 hours after oral substance administration, and the stomachs were removed, cleaned under running water and inspected for mucous membrane lesions. All macroscopically visible lesions were regarded as ulcers. The number of animals having ulcers was determined for each dose, and the UD50 values, i.e. the doses at which lesions were caused in 50% of the animals, were calculated from these figures by the method of Litchfield and Wilcoxon (J. Pharmacol. Exp. Ther. 96 (1949), p. 99).
# [3] = in vivo; conditions: mouse, ip; for LD50 at 168 h: read-out: Acute toxicity LD50
# Procedure: The LD50 values were determined by a standard method from the mortality occurring within 7 days in NMRI (Naval Medical Research Institute) mice (6 animals per dose) after a single intraperitoneal (i.p.) administration.
# [4] = target: T1, 5-lipoxygenase (Homo sapiens, UniProt P09917); assay: Inhibition of 5-lipoxygenase: LTB4 formation in isolated polymorphonuclear human granulocytes; format: cell-based; conditions: ionophor A 23 187, LTB4 by HPLC, 37° C.
# T1 construct: in-vitro experiments on isolated polymorphonuclear human granulocytes; endogenous in cells; host or cells: isolated human polymorphonuclear granulocytes
# T1 sequence (P09917 1-674): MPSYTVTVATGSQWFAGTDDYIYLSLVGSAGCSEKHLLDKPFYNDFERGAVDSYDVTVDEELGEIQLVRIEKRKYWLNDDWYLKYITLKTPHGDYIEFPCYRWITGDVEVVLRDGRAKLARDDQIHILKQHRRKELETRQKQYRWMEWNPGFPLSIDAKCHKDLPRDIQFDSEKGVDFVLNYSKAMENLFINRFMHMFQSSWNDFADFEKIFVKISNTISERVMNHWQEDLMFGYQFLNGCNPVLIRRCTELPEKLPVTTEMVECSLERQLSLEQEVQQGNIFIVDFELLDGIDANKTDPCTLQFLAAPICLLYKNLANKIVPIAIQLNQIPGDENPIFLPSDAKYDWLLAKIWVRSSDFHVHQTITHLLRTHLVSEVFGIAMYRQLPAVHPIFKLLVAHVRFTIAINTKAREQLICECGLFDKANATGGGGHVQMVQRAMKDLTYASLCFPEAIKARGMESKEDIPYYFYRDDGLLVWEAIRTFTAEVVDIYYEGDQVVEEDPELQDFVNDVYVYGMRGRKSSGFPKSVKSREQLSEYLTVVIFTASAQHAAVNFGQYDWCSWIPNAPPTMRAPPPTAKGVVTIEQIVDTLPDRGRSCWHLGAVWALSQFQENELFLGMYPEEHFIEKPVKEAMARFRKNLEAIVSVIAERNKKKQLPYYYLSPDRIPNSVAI
# Procedure: 5. Inhibition of 5-lipoxygenase
# The inhibitory action of the compounds according to the invention of 5-lipoxygenase-catalysed degradation of arachidonic acid was determined, as usual, in in-vitro experiments on isolated polymorphonuclear human granulocytes. To this purpose, the cells were incubated at 37° C. with the particular test preparation and the formation of pro-inflammatoryleukotriene B4 (LTB4) was induced after 5 minutes using the calcium ionophor A 23 187 (Calbiochem GmbH, Frankfurt/Main, FRG, Biochemical and Immunochemical Catalog 1985, p. 284). The amount of LTB4 liberated over a period of 10 minutes was determined quantitatively with the aid of a UV detector after separation by means of high-pressure liquid chromatography (HPLC).
# [5] = tested on: Adriamycin-induced inflammation; assay: Antioxidative action: inhibition of Adriamycin (doxorubicin) induced inflammation; format: in vivo, male Sprague-Dawley rats; conditions: for Increase in paw volume: after 72 hours, control 390; for Protective effect against Adriamycin-induced tissue destruction (in words): rats, oral
# Description: 4. Antioxidative action According to current opinion, aggressive oxygen radicals, which are formed to excess during the chronic inflammation process and, as highly toxic inflammation mediators themselves, perpetually maintain the connective tissue destruction proceeding via irreversible lipid peroxidation of the cell membranes, participate prominently in the progressive course, caused by a number of factors, of rheumatoid arthritis and other inflammatory disorders. As a result, antioxidatively active pharmaceuticals which are capable of deactivating these extremely cytotoxic oxygen radicals should allow specific intervention in the chronic course of the inflammation. A suitable animal model for this type of tissue destruction caused by oxygen radicals is Adriamycin (doxorubicin) induced inflammation in rats. The investigations were carried out by the method of D. M. Siegel et al. (Inflammation 4 (1980), p. 233) on male Sprague-Dawley rats having a body weight of between 200 and 230 g in groups each with 7 animals, which received 0.1 mg of Adriamycin, dissolved in 0.1 ml of 0.9% strength sodium chloride solution, by subcutaneous injection into the left rear paw. The increase in paw volume after 72 hours was determined by plethysmography measurement as a measure of the degree of inflammation. The test preparations were administered orally once daily on the 4 successive days, starting with the day of Adriamycin injection, in a 1% strength aqueous carboxymethylcellulose suspension.
# [6] = tested on: acetic acid stretching; assay: Analgesic action: acetic acid stretching test; format: in vivo, female mice of a NMRI strain; conditions: Mus musculus, 0.25 h; oral dose of 158 mg/kg, mice; read-out: Animals relieved of pain in %
# Procedure: The analgesic action of the compounds of the formula I according to the invention was tested by means of the acetic acid stretching test on mice by the method of R. Koster et al., Fed. Prod. 18 (1959), p. 412.
# The experimental animals used were female mice of a NMRI strain having a body weight (BW) between 21 and 28 g. Groups of 12 animals each received 0.1 ml/10 g of BW of a 0.6% strength acetic acid solution injected intraperitoneally. The test substances were administered 30 minutes beforehand. Immediately after the injection of acetic acid, the animals were placed alone and the number of typical stretching movements occurring within 15 minutes were counted, which comprise a brief tensing of the stomach muscles including the flank parts and subsequent stretching of the rear body and at least one read extremity.
# The test substances were administered orally in a volume of 10 ml/kg of BW in a 1% strength aqueous carboxymethylcellulose (CMC) suspension.
# [7] = 50 mg/kg p.o., *Significance p <0.05
# [8] = single i.p., NMRI mice, mortality within 7 days
SMILES,inhibition in vivo at 50 mg/kg [1] [%],TD50 at 24 h [2] [mg/kg],LD50 at 168 h [3] [mg/kg],responders at 158 mg/kg [6] [%],other results
CN1CCN(C2=NN=C(c3cc(C(C)(C)C)c(O)c(C(C)(C)C)c3)CS2)CC1 [Example 20],72,200,150 to 300,–,–
CC(C)(C)c1cc(C2=NN=C(N3CCCC3)SC2)cc(C(C)(C)C)c1O [Example 17],–,–,–,–,IC50 [4]: 10 µM
CCN(CC)C1=NN=C(c2cc(C(C)(C)C)c(O)c(C(C)(C)C)c2)CS1 [Example 9],–,> 200,600 to 1200,–,inhibition in vivo at 12.5 mg/kg ([1]; rats): 55%
CCN(C1=NN=C(c2cc(C(C)(C)C)c(O)c(C(C)(C)C)c2)CS1)C(C)C [Example 10],82,200,> 1200,–,–
CC(C)(C)c1cc(C2=NN=C(NCc3ccccc3)SC2)cc(C(C)(C)C)c1O [Example 12],65,> 200,600 to 1200,–,–
"CN(C)C1=NN=C(c2cc(C(C)(C)C)c(O)c(C(C)(C)C)c2)CS1 [Example 1, 5-(3,5-di-tert.butyl-4-hydroxyphenyl)-2-dimethylamino-6H-1,3,4-thiadiazinehydrobromide]",–,200,600 to 1200,83,"inhibition in vivo at 12.5 mg/kg ([1]; rats): 69%; ED50 ([1]; from the dose/action curve, p.o., rats): 6 mg/kg; selectivity ratio [2]: ~33; selectivity ratio ([3]; LD50 (i.p. mice) divided by ED50 (adjuvant arthritis, rats), read-out: LD50/ED50 quotient): ~150; Protective action ([5]; 25 mg/kg p.o.): 10%; Increase in paw volume ([5]; 25 mg/kg p.o.): 350 µL; Protective action [5, 7]: 69%; Increase in paw volume ([5]; 50 mg/kg p.o.): 120 µL; Protective effect against Adriamycin-induced tissue destruction (in words) [5]: strong, dose-dependent protective effect; IC50 [4]: 9 µM"
C=CCNC1=NN=C(c2cc(C(C)(C)C)c(O)c(C(C)(C)C)c2)CS1 [Example 14],75,> 200,600 to 1200,67,"Protective action ([5]; 25 mg/kg p.o.): 36%; Increase in paw volume ([5]; 25 mg/kg p.o.): 250 µL; Protective action [5, 7]: 59%; Increase in paw volume ([5]; 50 mg/kg p.o.): 160 µL; Protective effect against Adriamycin-induced tissue destruction (in words) [5]: strong, dose-dependent protective effect"
"Cc1cc(C2=NN=C(N(C)C)SC2)cc(C(C)(C)C)c1O [Example 3, 5-(5-tert.butyl-3-methyl-4-hydroxyphenyl)-2-dimethylamino-6H-1,3,4-thiadiazine hydrobromide]",58,> 200,–,42,"LD50 at 168 h [3, 8]: 600 to 1200 mg/kg; IC50 [4]: 4 µM"
CC1SC(N(C)C)=NN=C1c1cc(C(C)(C)C)c(O)c(C(C)(C)C)c1 (stereo not shown) [Example 22],–,> 200,600 to 1200,92,inhibition in vivo at 12.5 mg/kg ([1]; rats): 84%
CCN(C)C1=NN=C(c2cc(C(C)(C)C)c(O)c(C(C)(C)C)c2)CS1 [Example 8],–,> 200,300 to 600,92,inhibition in vivo at 12.5 mg/kg ([1]; rats): 61%; IC50 [4]: 13 µM
"CC1CCN(C2=NN=C(c3cc(C(C)(C)C)c(O)c(C(C)(C)C)c3)CS2)CC1 [Example 2, 5-(3,5-di-tert.butyl-4-hydroxyphenyl)-2-(4-methylpiperidino)-6H-1,3,4-thiadiazine hydrobromide]",62,100,–,75,"LD50 at 168 h [3, 8]: 600 to 1200 mg/kg"
"CNC1=NN=C(c2cc(C(C)(C)C)c(O)c(C(C)(C)C)c2)CS1 [Example 4, 5-(3,5-di-tert.butyl-4-hydroxyphenyl)-2-methylamino-6H-1,3,4-thiadiazine-hydrochloride]",81,100 to 200,–,83,"LD50 at 168 h [3, 8]: 300 to 600 mg/kg"
"COc1ccc2cc(C(C)C(=O)O)ccc2c1 (stereo not shown) [naproxen, 2-(6-methoxy-2-naphthyl)-propionic acid, reference compound]",55,–,–,–,ED50 [1]: 17.5 mg/kg; Protective effect against Adriamycin-induced tissue destruction (in words) [5]: ineffective
CN(Cc1ccccc1)C1=NN=C(c2cc(C(C)(C)C)c(O)c(C(C)(C)C)c2)CS1 [Example 13],71,> 200,600 to 1200,42,–
CC(C)(C)c1cc(C2=NN=C(N3CCCCC3)SC2)cc(C(C)(C)C)c1O [Example 18],74,100,> 1200,–,–
CCCN(CCC)C1=NN=C(c2cc(C(C)(C)C)c(O)c(C(C)(C)C)c2)CS1 [Example 11],54,100 to 200,> 1200,–,–

# — US4940790A, “5-(3-alkyl-5-tert.butyl-4-hydroxyphenyl)-2-amino-6H-1,3,4-thiadiazines” (Hoechst Aktiengesellschaft, priority 1987, dated 1990)
